{
  "source": "paper PMC9612383",
  "about": "“Biological Activity of NHC-Gold-Alkynyl Complexes Derived from 3-Hydroxyflavones” (Pharmaceutics, 2022)",
  "key": {"E. coli": {"tested_on": "E. coli", "assay": "Scanning electron microscopy of treated E. coli", "format": "cell-based", "conditions": "E. coli treated at 1/2× MIC and MIC, 24 h", "protocol": "500 μL of a E. coli culture (10^7 CFU mL^−^1) were added per well to a 12-well plate and were further treated with the complex 1b at its MIC and 1/2× MIC. A positive control of bacteria without any treatment and a negative control of only culture medium were included, following the same protocol as the rest of the conditions. Then, the plate was incubated at 37 °C with mild agitation for 24 h. After this time, the bacterial suspensions were transfered into 1.5 mL centrifugation tubes. Then, the bacteria were washed and fixed using glutaraldehyde 2.5% in phosphate buffer 10 mM at pH 7.2, with 2 h incubation. Then, bacteria were gradually dehydrated using EtOH solutions at different v/v% (25, 50, 75 and 100). 10 µL of the dehydrated bacteria solution was placed on a 5 × 5 mm Si waffle, left to dry and coated with a thin layer of carbon."}, "[1]": {"molecular_target": "T1, dihydrofolate reductase (DHFR) (Escherichia coli, UniProt P0ABQ4)", "T1 construct": "to 0.01–0.03 mg of cell lysate and completed with reaction buffer; endogenous in cells; host or cells: E. coli (lysate)", "T1 sequence (P0ABQ4 whole entry)": "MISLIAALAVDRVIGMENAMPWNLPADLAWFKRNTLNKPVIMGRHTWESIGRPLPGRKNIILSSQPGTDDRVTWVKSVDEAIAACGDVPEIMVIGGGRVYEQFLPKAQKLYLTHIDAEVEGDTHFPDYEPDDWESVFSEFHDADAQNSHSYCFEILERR", "assay": "DHFR activity assay in E. coli lysates", "format": "biochemical", "conditions": "E. coli lysates incubated with complex; p < 0.05", "protocol": "For sample preparation, E. coli were lysated by sonication. After ultrasonic homogenization, the lysate was centrifuged 1 min at 13,000 rpm and the pellet was resuspended in extraction buffer. […] Both extraction and reaction buffer consisted of 10 mM Tris-HCl, 1 mM EDTA, 100 mM NaCl and protease inhibitor."}, "[2]": {"assay": "n-Octanol-water distribution coefficient, shake-flask", "format": "physicochemical", "conditions": "n-octanol / buffered aqueous solution pH 7.4", "protocol": "The n-octanol-water coefficients of the complexes were determined as previously reported using a shake-flask method. Buffered-saline distilled water (100 mL, phosphate buffer [PO4^3−] = 10 mM, [NaCl] = 0.15 M, pH 7.4) and n-octanol (100 mL) were shaken for 72 h to allow saturation of both phases. Approximately 1 mg of the complexes was dissolved in 5 mL of the aqueous phase and 5 mL of the organic phase were added, mixing for 10 min. The resulting emulsion was centrifuged to separate the phases. The concentration of the compounds in each phase was determined using UV absorbance spectroscopy. LogP was defined as log{[compound(organic)]/[compound(aqueous)]}."}, "[3]": {"molecular_target": "T2, human recombinant thioredoxin reductase (Homo sapiens, UniProt Q16881)", "T2 construct": "purchased SIGMA SRP6081", "T2 sequence (Q16881 151-649 limits assumed)": "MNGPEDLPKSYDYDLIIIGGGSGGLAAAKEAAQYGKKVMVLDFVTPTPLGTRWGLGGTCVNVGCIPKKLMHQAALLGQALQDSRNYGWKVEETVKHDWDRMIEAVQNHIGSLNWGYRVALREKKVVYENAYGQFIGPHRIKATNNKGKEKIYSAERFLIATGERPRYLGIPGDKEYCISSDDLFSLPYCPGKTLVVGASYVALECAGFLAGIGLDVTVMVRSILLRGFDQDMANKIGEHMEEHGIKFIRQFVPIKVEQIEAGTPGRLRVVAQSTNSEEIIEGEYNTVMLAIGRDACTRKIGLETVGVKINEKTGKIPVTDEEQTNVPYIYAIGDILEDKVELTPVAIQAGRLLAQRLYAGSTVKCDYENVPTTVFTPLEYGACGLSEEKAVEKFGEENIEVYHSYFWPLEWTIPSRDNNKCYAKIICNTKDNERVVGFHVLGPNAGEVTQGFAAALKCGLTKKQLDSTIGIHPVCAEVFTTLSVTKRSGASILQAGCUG", "assay": "Recombinant human TrxR activity (DTNB)", "format": "biochemical", "conditions": "40 μM of complex; p > 0.05", "protocol": "A measurement of human recombinant thioredoxin reductase was performed as previously described by Quero et al.. Briefly, gold complex was dissolved in DMSO at the desired concentrations and was incubated for 45 min with recombinant human TrxR (SIGMA SRP6081) at 37 °C in a 96 well plate. 25 μL of reaction mix, composed by 500 μL PBS pH 7.4, 80 μL 100 mM EDTA pH 7.5, 20 μL 0.05% BSA, 20 mM 100 μL NADPH, and 300 μL distilled H2O, was then added to each well. 25 μL of 20 mM 5,5′-dithiobis(2-nitrobenzoic acid) (DNTB), dissolved in 100% EtOH, were added to start the reaction and changes in absorbance at 405 nm were monitored every 10 s for 6 min. For comparison purposes, the activity of recombinant TrxR in presence of DMSO was used as negative control."}, "[4]": {"tested_on": "panel of Gram-positive and Gram-negative strains", "assay": "Disk diffusion method, whole panel (summary in words)", "format": "cell-based", "conditions": "whole panel, Gram-positive and Gram-negative strains", "protocol": "To evaluate the antibacterial potential of gold derivatives, […] bacterial strains were selected: E. coli, P. aeruginosa, S. enterica, E. faecalis, L. monocytogenes, S. epidermidis, S. aureus. Dis diffusion assay was performed following Clinical & Laboratory Standards Institute (CLSI) recommendations. Active cultures (0.5 McFarland) from all strains were spread onto Mueller–Hinton Agar (MHA, Oxoid, Basingstoke, UK) and disks impregnated with 10 µL of each gold complex or control (DMSO for negative control, phenol for positive control) were placed. Plates were and incubated for 22 h ± 2 h at 37 °C ± 1 °C and then the diameter of the inhibition zone was determined.\nGiven that NHC-gold derivatives might display antibacterial activity, we evaluated the antibacterial effect of the complexes toward a panel of Gram-positive and Gram-negative strains using the disk diffusion method. The selected strains are human pathogen or commensal bacteria and the results are summarized on Table 1."}, "L. monocytogenes": {"tested_on": "L. monocytogenes", "assay": "Disk diffusion test", "format": "cell-based", "conditions": "complex 5 μg, 24 h incubation; diameter including disk (6 mm)", "protocol": "(§1) To evaluate the antibacterial potential of gold derivatives, six bacterial strains were selected: E. coli, P. aeruginosa, S. enterica, E. faecalis, L. monocytogenes, S. epidermidis, S. aureus. Dis diffusion assay was performed following Clinical & Laboratory Standards Institute (CLSI) recommendations. […] Plates were and incubated for 22 h ± 2 h at 37 °C ± 1 °C and then the diameter of the inhibition zone was determined."}, "S. aureus 2593": {"tested_on": "S. aureus 2593", "assay": "Disk diffusion test", "format": "cell-based", "conditions": "complex 5 μg, 24 h incubation; diameter including disk (6 mm)", "protocol": "as §1"}, "S. enterica 14028": {"tested_on": "S. enterica 14028", "assay": "Disk diffusion test", "format": "cell-based", "conditions": "complex 5 μg, 24 h incubation; diameter including disk (6 mm)", "protocol": "as §1"}, "E. coli 13216": {"tested_on": "E. coli 13216", "assay": "Disk diffusion test", "format": "cell-based", "conditions": "complex 5 μg, 24 h incubation; diameter including disk (6 mm)", "protocol": "as §1"}, "S. epidermidis": {"tested_on": "S. epidermidis", "assay": "Disk diffusion test", "format": "cell-based", "conditions": "complex 5 μg, 24 h incubation; diameter including disk (6 mm)", "protocol": "as §1"}, "E. coli 8739": {"tested_on": "E. coli 8739", "assay": "Disk diffusion test", "format": "cell-based", "conditions": "complex 5 μg, 24 h incubation; diameter including disk (6 mm)", "protocol": "as §1"}, "E. faecalis": {"tested_on": "E. faecalis", "assay": "Disk diffusion test", "format": "cell-based", "conditions": "complex 5 μg, 24 h incubation; diameter including disk (6 mm)", "protocol": "as §1"}, "P. aeruginosa": {"tested_on": "P. aeruginosa", "assay": "Disk diffusion test", "format": "cell-based", "conditions": "complex 5 μg, 24 h incubation; diameter including disk (6 mm)", "protocol": "as §1"}, "S. aureus 13565": {"tested_on": "S. aureus 13565", "assay": "Disk diffusion test", "format": "cell-based", "conditions": "complex 5 μg, 24 h incubation; diameter including disk (6 mm)", "protocol": "as §1"}, "E. coli 25922": {"tested_on": "E. coli 25922", "assay": "Disk diffusion test", "format": "cell-based", "conditions": "complex 5 μg, 24 h incubation; diameter including disk (6 mm)", "protocol": "as §1"}},
  "data": [
    {"molecule": "Cn1cc[n+](C)[c]1[Au-][C]#CCOc1c(-c2ccc(Br)cc2)oc2ccccc2c1=O", "note": "[1b, [Au(Lb)(IMe)] (R = Br; IMe = C5H10N2)]", "values": [
      {"measurement": "cell morphology by SEM", "setting": "E. coli", "value": "rougher surface of bacteria, with the presence of wrinkles and creases"},
      {"measurement": "size (length) of bacteria by SEM", "setting": "E. coli", "value": "shrinking of bacteria, which is concentration dependent"},
      {"measurement": "DHFR activity (percentage respect to control)", "setting": "[1]", "value": "significantly decreased DHFR activity"},
      {"measurement": "LogP7.4 (distribution coefficient)", "setting": "[2]", "value": 1.32},
      {"measurement": "enzymatic activity of recombinant TrxR", "setting": "[3]", "value": "no significant changes"},
      {"measurement": "antibacterial effect (in words)", "setting": "[4]", "value": "able to interfere with the development of both Gram positive and Gram negative strains"},
      {"measurement": "Inhibition Zone", "setting": "L. monocytogenes", "value": "18.50 ± 1.41", "unit": "mm"},
      {"measurement": "Inhibition Zone", "setting": "S. aureus 2593", "value": "13.76 ± 0.54", "unit": "mm"},
      {"measurement": "Inhibition Zone", "setting": "S. enterica 14028", "value": "9.39 ± 1.26", "unit": "mm"},
      {"measurement": "Inhibition Zone", "setting": "E. coli 13216", "value": "10.95 ± 0.64", "unit": "mm"},
      {"measurement": "Inhibition Zone", "setting": "S. epidermidis", "value": "25.05 ± 1.48", "unit": "mm"},
      {"measurement": "Inhibition Zone", "setting": "E. coli 8739", "value": "11.10 ± 0.08", "unit": "mm"},
      {"measurement": "Inhibition Zone", "setting": "E. faecalis", "value": "12.50 ± 1.41", "unit": "mm"},
      {"measurement": "Inhibition Zone", "setting": "P. aeruginosa", "value": "-"},
      {"measurement": "Inhibition Zone", "setting": "S. aureus 13565", "value": "16.58 ± 1.63", "unit": "mm"},
      {"measurement": "Inhibition Zone", "setting": "E. coli 25922", "value": "9.04 ± 2.17", "unit": "mm"}
    ]}
  ]
}
